Read-outs that look alike come from different tables or passages of the source.
Legend:
[1] = Metabolic stability test in pooled human liver microsomes; format: in vitro ADME; conditions: human liver microsomes 0.5 mg protein/mL, 1 mmol/L NADPH, 37° C., 30 minutes
Outline: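 Remaining-rate readout: parent compound left after 30 min versus 0 min (set as 100%), measured by LC/MS/MS or SPE/MS. Oxidative reaction ran at 37° C. with 1 mmol/L NADPH, 0.5 mg protein/mL pooled human microsomes, 50 mmol/L Tris-HCl pH 7.4 buffer.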

[2] = tested on: Mycobacterium avium ATCC700898; experiment: Determination of IC85 against M. avium (resazurin fluorescence); format: cell-based; conditions: 37° C., 3 days incubation then resazurin, fluorescence one day later
[3] = Mycobacterium avium, ATCC700898, M. avium ATCC700898, CAMHB medium, read-out: IC85

Structure (SMILES) | MS_h_% (remaining amount of compound after reaction, 0 minute = 100%) [1] | IC85 [2, 3] | IC85 ([2]; M. avium ATCC700898, CAMHB medium)
CCc1nc2cc(Cl)ccn2c1C(=O)NCc1ccc(N2CCN(c3ccc(OC(F)(F)F)cc3)[C@H](C)C2)c(F)c1.Cl [Compound I-1-83] | 85% | 620 nM | –
Cc1nc2ccc(F)cn2c1C(=O)NCc1ccc(N2CCN(c3ccc(OC(F)(F)F)cc3)[C@H](C)C2)c(F)c1.Cl [Compound I-1-84] | 86% | 38 nM | –
Cc1nc2ccc(Cl)cn2c1C(=O)NCc1ccc(N2CCN(c3ccc(OC(F)(F)F)cc3)[C@H](C)C2)c(F)c1.Cl [Compound I-1-85] | 91% | 6.9 nM | –
CCc1nc2ccc(Cl)cn2c1C(=O)NCc1ccc([C@@H]2CO[C@@H](c3ccc(OC(F)(F)F)cc3)CO2)c(F)c1 [Compound I-1-86] | 77% | 28 nM | –
CCc1nc2cc(F)ccn2c1C(=O)NCc1ccc(N2CC=C(c3ccc(OC(F)(F)F)cc3)CC2)c(F)c1.Cl [Compound I-1-87] | 86% | 7.9 nM | –
CCc1nc2cc(F)ccn2c1C(=O)NCc1cc(F)c(N2CCC(c3ccc(OC(F)(F)F)cc3)CC2)c(F)c1.Cl [Compound I-1-88] | 89% | 6.1 nM | –
COc1ccn2nc(C)c(C(=O)NCc3ccc(C4CCN(c5ccc(OC(F)(F)F)cc5)CC4)c(F)c3)c2c1.Cl [Compound I-1-89] | 65% | 7.2 nM | –
COc1ccn2nc(C)c(C(=O)NCc3ccc(N4CCN(c5ccc(OC(F)(F)F)cc5)[C@@H](C)C4)c(F)c3)c2c1.Cl [Compound I-1-90] | 91% | 5.2 nM | –
COc1ccn2nc(C)c(C(=O)NCc3ccc(N4CCN(c5ccc(OC(F)(F)F)cc5)[C@H](C)C4)c(F)c3)c2c1.Cl [Compound I-1-91] | 89% | 5.3 nM | –
CCc1nc2ccc(Cl)cn2c1C(=O)NCc1cc(F)c(N2CCN(c3ccc(OC(F)(F)F)cc3)[C@@H](C)C2)c(F)c1.Cl [Compound I-1-92] | 66% | 5.5 nM | –
CCc1nc2ccc(Cl)cn2c1C(=O)NCc1ccc(N2CCN(c3ccc(OC(F)(F)F)cc3)[C@@H](C)C2)c(F)c1F.Cl [Compound I-1-93] | 67% | 11 nM | –
CCc1nc2ccc(Cl)cn2c1C(=O)NCc1cc(F)c(N2CCN(c3ccc(OC(F)(F)F)cc3)[C@@H](C)C2)cc1F.Cl [Compound I-1-94] | 67% | 14 nM | –
CCc1nc2cc(F)ccn2c1C(=O)NCc1cc(F)c(N2CCN(c3ccc(OC(F)(F)F)cc3)[C@@H](C)C2)c(F)c1.Cl [Compound I-1-95] | 91% | 2.2 nM | –
CCc1nc2cc(F)ccn2c1C(=O)NCc1ccc(N2CCN(c3ccc(OC(F)(F)F)cc3)[C@@H](C)C2)c(F)c1F.Cl [Compound I-1-96] | 90% | 11 nM | –
CCc1nc2cc(F)ccn2c1C(=O)NCc1cc(F)c(N2CCN(c3ccc(OC(F)(F)F)cc3)[C@@H](C)C2)cc1F.Cl [Compound I-1-97] | 86% | 7.2 nM | –
CCc1nc2ccc(Cl)cn2c1C(=O)NCc1ccc(N2CCN(c3ccc(OC(F)(F)F)cc3F)[C@@H](C)C2)c(F)c1.Cl [Compound I-1-98] | 76% | 8.8 nM | –
CCc1nc2ccc(Cl)cn2c1C(=O)NCc1ccc(N2CCN(c3ncc(C(F)(F)F)cc3F)[C@@H](C)C2)c(F)c1.Cl [Compound I-1-99] | 77% | 35 nM | –
CCOc1ccc(N2CCN(c3ccc(CNC(=O)c4c(CC)nc5ccc(Cl)cn45)c(F)c3)C[C@@H]2C)cc1.Cl [Compound I-1-100] | 65% | 46 nM | –
CCOc1ccc(N2CCN(c3ccc(CNC(=O)c4c(CC)nc5ccc(Cl)cn45)c(F)c3)C[C@@H]2C)c(F)c1.Cl [Compound I-1-101] | 90% | 470 nM | –
CCc1nc2ccc(Cl)cn2c1C(=O)NCc1ccc(N2CCN(c3ccc(OCC4CC4)cc3)[C@@H](C)C2)cc1F.Cl [Compound I-1-102] | 75% | 24 nM | –
CCCCOc1ccc(N2CCN(c3ccc(CNC(=O)c4c(CC)nc5ccc(Cl)cn45)c(F)c3)C[C@@H]2C)cc1.Cl [Compound I-1-103] | 64% | 19 nM | –
Cc1nn2ccccc2c1C(=O)NCc1ccc(N2CCN(c3ccc(OC(F)(F)F)cc3)[C@@H](C)C2)c(F)c1.Cl [Compound I-1-104] | 72% | 92 nM | –

Structure (SMILES) | MS_h_% (remaining amount of compound after reaction, 0 minute = 100%) [1] | IC85 [2, 3] | IC85 ([2]; M. avium ATCC700898, CAMHB medium)
Cc1nn2cc(F)ccc2c1C(=O)NCc1ccc(N2CCN(c3ccc(OC(F)(F)F)cc3)[C@@H](C)C2)c(F)c1.Cl [Compound I-1-105] | 77% | 59 nM | –
CCc1nc2ccc(Cl)cn2c1C(=O)NCc1ccc(C2CCN(c3ccc(OC(F)(F)F)cc3)[C@@H](C)C2)c(F)c1.Cl (some centres unmarked) [Compound I-1-106] | 59% | 6.2 nM | –
CCc1nc2ccc(Cl)cn2c1C(=O)NCc1ccc(C2=C[C@H](C)N(c3ccc(OC(F)(F)F)cc3)CC2)c(F)c1.Cl [Compound I-1-107] | 71% | 7 nM | –
CCc1nc2cc(F)ccn2c1C(=O)NCc1ccc(N2CCN(c3ccc(OC(F)(F)F)cn3)[C@@H](C)C2)c(F)c1.Cl [Compound I-1-108] | 71% | 4.2 nM | –
CCOc1ccc(N2CCN(c3ccc(CNC(=O)c4c(CC)nc5cc(F)ccn45)cc3F)C[C@@H]2C)cc1.Cl [Compound I-1-109] | 80% | 7.1 nM | –
CCc1nc2cc(F)ccn2c1C(=O)NCc1ccc(N2CCN(c3ccc(OC4CC4)cc3)[C@@H](C)C2)c(F)c1.Cl [Compound I-1-110] | 80% | 9.3 nM | –
CCc1nc2cc(F)ccn2c1C(=O)NCc1ccc(N2CCN(c3ccc(OC(C)C)cc3)[C@@H](C)C2)c(F)c1.Cl [Compound I-1-111] | 88% | 7.1 nM | –
CCc1nc2cc(F)ccn2c1C(=O)NCc1ccc(N2CCN(c3ccc(C(F)(F)F)cc3)[C@@H](C)C2)c(F)c1.Cl [Compound I-1-112] | 69% | 1.4 nM | –
CCc1nc2cc(F)ccn2c1C(=O)NCc1ccc(N2CCN(c3ccc(C(F)(F)F)cn3)[C@@H](C)C2)c(F)c1.Cl [Compound I-1-113] | 79% | 4.8 nM | –
CCc1nc2cc(F)ccn2c1C(=O)NCc1ccc(N2CCN(c3ccc(C(F)(F)F)cn3)[C@@H](C)C2)c(F)c1.Cl [Compound I-1-114] | 87% | – | 7.4 nM
CCc1nc2cc(F)ccn2c1C(=O)NCc1ccc(N2CCN(c3ccc(OCC(F)(F)F)cc3)[C@@H](C)C2)c(F)c1.Cl [Compound I-1-115] | 69% | 4.6 nM | –
CCc1nc2cc(F)ccn2c1C(=O)NCc1ccc(N2CCN(c3ccc(OCC(F)(F)F)nc3)[C@@H](C)C2)c(F)c1.Cl [Compound I-1-116] | 87% | 11 nM | –
CCc1nc2cc(F)ccn2c1C(=O)NCc1ccc(N2CCN(c3ccc(OC(F)(F)F)c(F)c3)[C@@H](C)C2)c(F)c1.Cl [Compound I-1-117] | 83% | 2.5 nM | –
CCc1nc2cc(F)ccn2c1C(=O)NCc1ccc(N2CCN(c3ccc(OC(F)(F)F)cc3F)[C@@H](C)C2)c(F)c1.Cl [Compound I-1-118] | 97% | 7.6 nM | –
CCc1nc2cc(F)ccn2c1C(=O)NCc1ccc(N2CCN(c3cc(F)c(OC(F)(F)F)c(F)c3)[C@@H](C)C2)c(F)c1.Cl [Compound I-1-119] | 63% | 6.5 nM | –
CCOc1ccc(N2CCN(c3ccc(CNC(=O)c4c(CC)nc5cc(F)ccn45)cc3F)C[C@@H]2C)cn1.Cl [Compound I-1-120] | 71% | 12 nM | –
CCc1nc2cc(F)ccn2c1C(=O)NCc1ccc(N2CCN(c3ccc(OC(F)(F)C(F)(F)F)cc3)[C@@H](C)C2)c(F)c1.Cl [Compound I-1-121] | 95% | 3 nM | –
Cc1nn2ccc(Br)cc2c1C(=O)NCc1ccc(N2CCN(c3ccc(OC(F)(F)F)cc3)[C@@H](C)C2)c(F)c1.Cl [Compound I-1-122] | 81% | 66 nM | –
COc1ccn2nc(C)c(C(=O)NCc3ccc(N4CCC(c5ccc(OC(F)(F)F)cc5)CC4)c(F)c3)c2c1.Cl [Compound I-1-123] | 77% | 14 nM | –
CCc1nc2cc(F)ccn2c1C(=O)NCc1ccc(N2CCN(c3ccc(OC(F)(F)F)cc3)[C@H]3CCCC[C@@H]32)c(F)c1.Cl [Compound I-1-124] | 63% | 870 nM | –
COc1ccn2nc(C)c(C(=O)NCc3ccc(N4CCN(c5ccc(OC(F)(F)F)cc5)[C@H]5CCCC[C@@H]54)c(F)c3)c2c1 [Compound I-1-125] | 68% | 780 nM | –
